Measured values published in PMC5571211 (Scientific Reports, 2017).

Tests used:
[1] = target: T1, human recombinant LTA4-H (Homo sapiens, UniProt P09960); test: LTA4 hydrolase activity, co-incubation of isolated 5-LOX and LTA4-H; format: biochemical; details: diflapolin up to 10 µM, AUDA 10 µM, SC57461A 0.3 µM, zileuton 3 µM
T1 construct: gift of Dr. E. Proschak, Goethe University, Frankfurt
T1 sequence (P09960 2-611 limits assumed): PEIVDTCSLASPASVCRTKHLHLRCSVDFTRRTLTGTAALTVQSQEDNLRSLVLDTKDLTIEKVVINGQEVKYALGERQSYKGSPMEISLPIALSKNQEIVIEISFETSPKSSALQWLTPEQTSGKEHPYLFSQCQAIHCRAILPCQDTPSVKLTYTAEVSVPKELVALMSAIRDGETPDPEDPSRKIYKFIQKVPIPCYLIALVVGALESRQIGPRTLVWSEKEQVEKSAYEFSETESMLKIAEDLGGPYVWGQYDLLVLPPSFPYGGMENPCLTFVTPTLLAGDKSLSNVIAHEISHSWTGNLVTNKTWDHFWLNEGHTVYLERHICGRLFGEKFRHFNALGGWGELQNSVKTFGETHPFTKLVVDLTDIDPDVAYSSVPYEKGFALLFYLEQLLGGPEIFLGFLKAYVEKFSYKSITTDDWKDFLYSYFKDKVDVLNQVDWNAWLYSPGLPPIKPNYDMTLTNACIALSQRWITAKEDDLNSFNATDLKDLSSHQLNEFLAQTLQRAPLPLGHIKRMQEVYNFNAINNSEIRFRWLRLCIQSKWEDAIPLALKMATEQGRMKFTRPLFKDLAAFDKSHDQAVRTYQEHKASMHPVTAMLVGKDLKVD
Protocol: In order to determine the activity of LTA4-H, aliquots of human recombinant 5-LOX (0.5 µg) and 10 µg of human recombinant LTA4-H (kindly provided by Dr. E. Proschak, Goethe University, Frankfurt, Germany) were suspended in 1 mL PBS containing 1 mM EDTA and pre-incubated with test compounds or vehicle (0.1% DMSO) for 10 min on ice. The specific LTA4-H inhibitor SC57461A (0.3 µM) was used as reference drug. Subsequently, incubations were stimulated with 20 µM AA and 2 mM CaCl2 for additional 10 min at 37 °C. The reaction was stopped by 1 volume ice-cold methanol, 530 µL acidified PBS and 200 ng of PGB1 as internal standard were added and subjected to solid phase extraction. All LTB4 isomers were analyzed by HPLC as described above.

[2] = target: T2, LTC4S (Homo sapiens, UniProt Q16873); test: LTC4S activity in microsomes of LTC4S-expressing HEK293 cells; format: biochemical; details: cell-free, up to 10 µM
T2 construct: expressed in transfected cells; host or cells: HEK293 stably expressing LTC4S (geneticin selection), microsomal fraction
T2 sequence (Q16873 1-150): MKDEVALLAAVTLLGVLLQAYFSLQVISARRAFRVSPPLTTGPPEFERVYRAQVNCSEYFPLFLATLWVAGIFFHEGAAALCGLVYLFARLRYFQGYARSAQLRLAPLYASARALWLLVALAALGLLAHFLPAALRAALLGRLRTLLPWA
Protocol: LTC4S activity was assayed by using microsomes of HEK293 cells stably expressing LTC4S, as previously published. In brief, HEK293 expressing LTC4S were cultivated as described above and selected using geneticin (400 µg/mL). Isolation of microsomes was performed as described for mPGES-1 above and microsomes were diluted in potassium phosphate buffer (0.1 M, pH 7.4) with glutathione (5 mM) to a final concentration of 2.5 µg protein per mL. […] To determine enzyme activity, acidified PBS and d5-LTC4-methyl ester (5 ng) as internal standard were added prior solid phase extraction and LTC4-methyl ester formation was analyzed by UPLC-MS/MS as described.

[3] = target: T3, co-localization of 5-LOX with FLAP (Homo sapiens, UniProt P20292); test: Immunofluorescence microscopy of 5-LOX subcellular redistribution / co-localization with FLAP; format: cell-based; details: human neutrophils or monocytes; diflapolin 1 µM, MK886 0.3 µM, zileuton 3 µM
T3 construct: endogenous in cells; host or cells: freshly isolated human monocytes (immunofluorescence also in neutrophils)
T3 sequence (P20292 1-161): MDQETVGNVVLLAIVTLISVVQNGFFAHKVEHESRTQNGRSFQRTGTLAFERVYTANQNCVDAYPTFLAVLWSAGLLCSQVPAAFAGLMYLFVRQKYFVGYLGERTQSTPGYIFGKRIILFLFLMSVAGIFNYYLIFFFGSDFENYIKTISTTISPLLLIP
Protocol: The incubations were stopped by paraformaldehyde fixation (4%, 20 min, RT) and cells were permeabilized using 100% ice-cold acetone (5 min, 4 °C). Blocking with non-immune goat serum (30 min, RT) was performed prior to overnight incubation (4 °C) with primary monoclonal-mouse-anti-5-LOX antibody (1:100 dilution, a generous gift from Dr. D. Steinhilber, Goethe University Frankfurt, Germany) and polyclonal-rabbit-anti-FLAP antibody (5 µg/mL, Abcam, Cambridge, UK). […] Cells were visualized by a Zeiss Axiovert 200 M microscope, and a Plan Neofluar × 100/1.30 Oil (DIC III) objective (Carl Zeiss, Jena, Germany) and image acquisition was performed using an AxioCam MR camera (Carl Zeiss).

SMILES | effect on LTA4-H activity (LTB4 formation) [1] | inhibition of LTC4S activity [2] | co-localization of 5-LOX with FLAP [3]
Cc1cc(OCc2nc3ccccc3s2)ccc1NC(=O)Nc1ccc(Cl)c(Cl)c1 [diflapolin, N-[4-(benzothiazol-2-ylmethoxy)-2-methylphenyl]-N′-(3,4-dichlorophenyl)urea] | failed to inhibit | failed to inhibit | –
CC(C)c1ccc2c(c1)c(SC(C)(C)C)c(CC(C)(C)C(=O)O)n2Cc1ccc(Cl)cc1 [MK886, 3-[1-(4-chlorobenzyl)-3-t-butyl-thio-5-isopropylindol-2-yl]-2,2 - dimethylpropanoic acid] | – | – | neither diflapolin nor the FLAP inhibitor MK886 or the 5-LOX inhibitor zileuton prevented co-localization
